# pIC50: −log10 of the molar value.
# Test system: 349418-098-R tumor spheroid viability
# Assay: Anticancer human tumor 349418-098-R patient-derived lung adenocarcinoma cell line growth inhibition
# Conditions: spheroids with HUVEC and MSC; for pIC50: curve of first compound; for viability, T/C: stronger effect = lower value
# Source text: Multicellular complex tumor spheroid response to DNA repair inhibitors in combination with DNA-damaging drugs
# This study explores the anticancer activities of DNA-damaging drugs and inhibitors of DNA damage repair, both as single agents and in combinations. Complex tumor spheroids comprised of malignant cells, endothelial cells and mesenchymal stem cells served as an in vitro model for human solid tumors. This model system incorporates physiologically relevant features and patient-derived or established malignant cell lines with clinically relevant genetic alterations from many tumor types. Twenty-six patient-derived or established malignant cell lines were evaluated representing sarcoma, melanoma, small cell lung cancer (SCLC), non-small cell lung cancer (NSCLC), as well as bladder, ovarian and pancreatic cancers. The concentration ranges selected for each drug and investigational agent were based upon clinically achievable concentrations if the clinical Cmax of the agent was known.
# Compounds. The drugs and compounds olaparib (NSC753686), talazoparib (NSC767125), berzosertib (NSC777718), elimusertib (NSC800525), nedisertib (NSC802822), VX-984 (NSC792969), AZD-1390 (NSC803789), temozolomide (NSC362856), topotecan (NSC609699), trabectedin (NSC813783), staurosporine (NSC755774), and gemcitabine (NSC613327) were obtained from the National Cancer Institute (NCI) Developmental Therapeutics Program Chemical Repository. The FDA-approved anticancer drug set is available from the Developmental Therapeutics Program at https://dtp.cancer.gov/organization/dscb/obtaining/available_plates.htm. […] The stock solutions were prepared in dimethyl sulfoxide (DMSO, Sigma-Aldrich, St. Louis, MO, cat. D2650) at 400-fold the tested concentration and stored at -70 degrees C. Prior to their use, the stock solutions were diluted in fresh medium and the final DMSO concentration in the assay was 0.25% (v/v). All drugs and investigational agents were tested over a range starting from a high concentration at or near the clinical Cmax and decreasing in half-log increments. If the clinical Cmax for an agent had not been determined, the highest concentration tested was 10 microM.
# Cell Lines. The patient-derived cancer cell (PDC) lines: 156681-154-R-J1-PDC, 283228-195-R-J1-PDC, 287954-098-R-J1-PDC, 292921-168-R-J2-PDC, 349418-098-R-PDC, 425362-245-T-J1-PDC, 556581-035-R-J1-PDC, and BL0293-F563-PDC were received from the NCI Patient-Derived Models Repository (PDMR, https://pdmr.cancer.gov). The established cell lines HS-SY-2 (RRID:CVCL_8719), MPNST, and SYO-1 (RRID:CVCL_7146) were obtained from the Sloan Kettering Institute. The alveolar soft parts sarcoma cell line ASPS-1 (RRID:CVCL_S738) was established at the NCI and grown from internal seed stocks. The following established cell lines were purchased from the American Type Culture Collection (ATCC, Manassas, VA): G-401 (ATCC, cat. CRL-1441, RRID:CVCL_0270), SW982 (ATCC, cat. HTB-93, RRID:CVCL_1734), VA-ES-BJ (ATCC, cat. CRL-2138, RRID:CVCL_1785), NCI-H719 (ATCC, cat. CRL-5837, RRID:CVCL_1582), NCI-H196 (ATCC, cat. CRL-5823, RRID:CVCL_1509), NCI-H841 (ATCC, cat. CRL-5845, RRID:CVCL_1595), NCI-H1618 (ATCC, cat. CRL-5879, RRID:CVCL_1480), NCI-H1876 (ATCC, cat. CRL-5902, RRID:CVCL_1503), DMS 114 (ATCC, cat. CRL-2066; RRID:CVCL_1174), NCI-H211 (ATCC, cat. CRL-5824; RRID:CVCL_1529), and SW 1271 (ATCC, cat. CRL-2177, RRID:CVCL_1716). The small cell lung cancer cell line COR-L88 was purchased from Sigma-Aldrich (cat. 92031917-1VL, RRID:CVCL_1141). The non-small cell lung cancer cell lines NCI-H226 (RRID:CVCL_1544) and NCI-H322M (RRID:CVCL_1557) were established at the NCI and grown from internal seed stocks. Pooled donor human umbilical vein endothelial cells (HUVEC, Lonza, cat. CC-2519) and human mesenchymal stem cells (hMSC, Lonza, cat. PT-2501) were purchased from Lonza (Walkersville, MD).
# Cell Culture. All cells were maintained in an incubator at 37 degrees C and 5% CO2 with 95% humidity. […]
# 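Further: spheroids exposed to compound for 7 days before measurement.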
# 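Wherever viability, T/C is given: percent of vehicle control viability with 100% = DMSO-treated spheroids.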
structure (smiles),measurement,setting,value
O=C(c1cc(Cc2n[nH]c(=O)c3ccccc23)ccc1F)N1CCN(C(=O)C2CC2)CC1 + Cn1nnc2c(C(N)=O)ncn2c1=O,pIC50,second compound 1 µM,< 4.52
same,pIC50,second compound 3.16 µM,< 4.52
same,pIC50,second compound 10 µM,4.63
same,pIC50,second compound 31.6 µM,5.14
same,pIC50,second compound 100 µM,5.74
same,"viability, T/C","second compound 1 µM, first compound 0.0949 µM",98.5%
same,"viability, T/C","second compound 1 µM, first compound 0.3 µM",98.9%
same,"viability, T/C","second compound 1 µM, first compound 0.949 µM",103%
same,"viability, T/C","second compound 1 µM, first compound 3 µM",98.7%
same,"viability, T/C","second compound 1 µM, first compound 9.49 µM",79.9%
same,"viability, T/C","second compound 1 µM, first compound 30 µM",57%
same,"viability, T/C","second compound 3.16 µM, first compound 0.0949 µM",99.5%
same,"viability, T/C","second compound 3.16 µM, first compound 0.3 µM",100%
same,"viability, T/C","second compound 3.16 µM, first compound 0.949 µM",99%
same,"viability, T/C","second compound 3.16 µM, first compound 3 µM",99%
same,"viability, T/C","second compound 3.16 µM, first compound 9.49 µM",89.1%
same,"viability, T/C","second compound 3.16 µM, first compound 30 µM",60.3%
same,"viability, T/C","second compound 10 µM, first compound 0.0949 µM",103%
same,"viability, T/C","second compound 10 µM, first compound 0.3 µM",103%
same,"viability, T/C","second compound 10 µM, first compound 0.949 µM",102%
same,"viability, T/C","second compound 10 µM, first compound 3 µM",96.8%
same,"viability, T/C","second compound 10 µM, first compound 9.49 µM",81.9%
same,"viability, T/C","second compound 10 µM, first compound 30 µM",40.5%
same,"viability, T/C","second compound 31.6 µM, first compound 0.0949 µM",102%
same,"viability, T/C","second compound 31.6 µM, first compound 0.3 µM",98.5%
same,"viability, T/C","second compound 31.6 µM, first compound 0.949 µM",100%
same,"viability, T/C","second compound 31.6 µM, first compound 3 µM",94.7%
same,"viability, T/C","second compound 31.6 µM, first compound 9.49 µM",36.6%
same,"viability, T/C","second compound 31.6 µM, first compound 30 µM",16%
same,"viability, T/C","second compound 100 µM, first compound 0.0949 µM",96.5%
same,"viability, T/C","second compound 100 µM, first compound 0.3 µM",98%
same,"viability, T/C","second compound 100 µM, first compound 0.949 µM",78.2%
same,"viability, T/C","second compound 100 µM, first compound 3 µM",27.9%
same,"viability, T/C","second compound 100 µM, first compound 9.49 µM",10.2%
same,"viability, T/C","second compound 100 µM, first compound 30 µM",9.95%
